# Measurements published in patent US20170340689A1, “TITRATED EXTRACTS OF CYNARA SCOLYMUS FOR USE IN THE TREATMENT OF MESOTHELIOMA” (ABOCA S.P.A SOCIETÀ AGRICOLA, priority 2014, published 2017).
# Test system: untransformed HMC cells
# Test: ATPlite cell vitality assay in co-treatment with pemetrexed, untransformed cells
# Format: cell-based, human
# Conditions: extract at non-cytotoxic dose 6 μg/ml
# Excerpt: 4.1 Association of Extract of Cynara Spp. and Pemetrexed with ATPlite™ Assay
smiles,measurement,value
"Nc1nc2[nH]cc(CCc3ccc(C(=O)N[C@@H](CCC(=O)O)C(=O)O)cc3)c2c(=O)[nH]1 [PMTX, pemetrexed]","cell vitality of untransformed HMC cells, pemetrexed alone or with extract",highly toxic for the non-tumour cells
